70 molecules from PubChem BioAssay AID179 (DTP/NCI, 2004) can be followed below.

The source made the active and inactive calls.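 Rule for the calls: active = compounds giving half or more protection of infected cells from virus-caused growth loss, again on retest; inactive = the rest.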 *1 amine or outer side, *2 acyl side, *3 side chain or, on linkers, in order; H or OH if unused. Where a SMILES comes first, the peptide text is derived from it. [ ]: non-standard residue; d: D form. The star is where a group is joined. X3 = CC(=O)N(C)SCC(N[*:1])C(=O)[*:2]; Cbz = O=C(OCc1ccccc1)*; Bn = c1ccc(C*)cc1

For the assay, the system named is CEM cells HIV-1 protection, formazan growth assay. As to the kind of experiment: NCI AIDS Antiviral Assay. The conditions noted are these: for IC50: measured here: growth of uninfected CEM cells. An outline of the steps: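 Steps: treat uninfected and HIV-1-infected human CEM cells at five drug levels; quantify growth by soluble formazan; retest any compound reaching 50% protection; classify actives from the retest.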

The EC50 is the concentration that produces a half-maximal response. For orientation: IC50 means the point on the concentration scale where inhibition reaches its midpoint. For the molecule `Cc1ccc(S(=O)(=O)N2CCCC2C(=O)NNC(N)=S)cc1` (centres undefined), the EC50 is over 200 µM and the IC50 was 117 µM.
`CC(=O)[O-].Cc1ccnc(NS(=O)(=O)c2ccc(N=Cc3ccccc3[O-])cc2)n1.Cc1ccnc(NS(=O)(=O)c2ccc(N=Cc3ccccc3[O-])cc2)n1.[Co+2].[H+]`: the EC50 is over 200 µM and the IC50 was found to be 10.5 µM.
For `CC(C)N(C(C)C)[PH+]1O[PH+](N(C(C)C)C(C)C)O[PH+](N(C(C)C)C(C)C)O[PH+](N(C(C)C)C(C)C)O1.[C-]#[O+].[C-]#[O+].[C-]#[O+].[C-]#[O+].[C-]#[O+].[C-]#[O+].[C-]#[O+].[C-]#[O+].[Mo].[Mo]` (centres undefined) the same measures were over 35.5 µM and over 35.5 µM.
As for `CC1=NN(c2cccc(S(=O)(=O)O)c2)C(=O)C1N=Nc1cc(Cl)cc(S(=O)(=O)O)c1O.O.[Cr]` (centres undefined), the EC50 was 89.1 µM and the IC50 was over 100 µM.
In the case of `N#CN=CN1CCN(c2ccccn2)CC1`, the EC50 was over 537 µM and the IC50 is over 537 µM.
Regarding `CC1=C(C(=O)NNC(=O)CC#N)CC(C(=O)NNC(=O)CC#N)=C(C)N1`, the EC50 is over 200 µM and the IC50 came to 123 µM.
For `O=S(=O)(O)c1ccc(N=Nc2ccc(N=Nc3c(O)c(S(=O)(=O)O)cc4cc(S(=O)(=O)O)ccc34)cc2)cc1`, the result was inactive.
Regarding `CC(=O)Oc1ccc(OC(Oc2ccccc2)c2ccccc2)cc1` (centres undefined), the 50% effective concentration (EC50) was over 89.1 µM and the IC50 is 60.3 µM.
For `Cc1ccc(S(=O)(=O)NC(=O)C2S(=O)(=O)OCCOS2(=O)=O)cc1`, the EC50 is over 3890 µM and the IC50 was determined as 77.6 µM.
For the molecule `Cc1cc(N(CCC#N)CCC#N)ccc1/C=N/NC(=O)c1ccccc1`, the EC50 is over 200 µM and the IC50 was 7.41 µM.
With `NCCCNCCCCNCCCNCc1c2ccccc2c(CNCCCNCCCCNCCCN)c2ccccc12`, the EC50 is over 1820 µM and the IC50 was 3.8 µM.
Turning to `CN(CCc1ccc(Br)cc1)CCN1CCCCC1`, the EC50 is over 123 µM and the IC50 was 57.5 µM.
For `Cc1c(-c2coc(-c3ccc([N+](=O)[O-])cc3)n2)c(=O)n(-c2ccccc2)n1C`, in that order: over 36.3 µM and over 36.3 µM.
On to `COC(=O)CCc1c(Cc2ccc[nH]2)[nH]c(C(=O)OCc2ccccc2)c1C`, for which the EC50 is over 200 µM and the IC50 worked out at 30.9 µM.
In the case of `COc1cc2c(cc1O)C(CSC)Cc1cc3c(cc1N(C)CC2)OCO3` (centres undefined), the EC50 was over 148 µM and the IC50 was found to be 12 µM.
With `N#CC1C2C1C1C=CC2n2c(=O)n(-c3ccccc3)c(=O)n21` (centres undefined), the EC50 is over 200 µM and the IC50 was over 200 µM.
For `CC(=O)N(C)SCC(NC(=O)C(Cc1ccccc1)NC(=O)OCc1ccccc1)C(=O)NC(Cc1ccccc1)C(=O)NC(Cc1c[nH]c2ccccc12)C(=O)NC(CCCCNC(=O)OCc1ccccc1)C(=O)NC(C(=O)NC(CSN(C)C(C)=O)C(=O)NC(C(N)=O)C(C)OCc1ccccc1)C(C)OCc1ccccc1` (centres undefined) (Cbz-F[X3]FWK(Cbz)T(Bn)[X3]T(Bn)-NH2; configuration not given here), the EC50 is 55 µM and the IC50 was 85.1 µM.
Turning to `Cc1ccc2c(c1)sc1nnc(C)n12`, the result was inactive.
For the molecule `CCN=C(NC(=O)c1ccccc1Cl)SCSC(=NCC)NC(=O)c1ccccc1Cl`, the EC50 is over 200 µM and the IC50 was over 200 µM.
For `O=c1c2sc3nc(NCCN4CCCCC4)ncc3c2ncn1-c1ccccc1`, the EC50 is over 200 µM and the IC50 stood at 117 µM.
As to `O=C(O)C12C3CCC(CC3)C1(C(=O)O)C1CCC2C1` (centres undefined), the EC50 was over 200 µM and the IC50 is over 200 µM.
Take `O=c1c2cccnc2ncn1CCN1CCOCC1`: the outcome was inactive.
`COc1nc(NC2OC(COC(C)=O)C(OC(C)=O)C(OC(C)=O)C2OC(C)=O)c(N=C(C)C(C)=O)c(=O)n1C` (centres undefined): the outcome was inactive.
Take `O=C1C(=O)N(CNC(c2ccccc2)c2ccccc2)c2ccccc21`: the EC50 is over 126 µM and the IC50 turned out to be 102 µM.
With `CCOC(=O)c1c[nH]c(C(=O)C=[N+]=[N-])c1C1CCN(CC)C1=S` (centres undefined), the EC50 is over 200 µM and the IC50 came to 138 µM.
As to `COC(=O)c1ccc(CCC2=CC(=O)C=CC2=O)cc1`, the EC50 is over 200 µM and the IC50 came out at 7.59 µM.
With `CN(C)CCCNc1nnc(NCCCN(C)C)c2c(=O)c3sccc3[nH]c12`, the EC50 is over 20 µM and the IC50 is 2.69 µM.
On to `O=C(CC1(O)C(=O)Nc2c(Cl)cc(Cl)cc21)c1ccc(F)cc1` (centres undefined), for which the EC50 is over 28.2 µM and the IC50 is over 28.2 µM.
With `CC1(C)N=C(C(N)=O)c2ncn(CCO)c2N1`, the EC50 is over 200 µM and the IC50 was over 200 µM.
Turning to `O=[N+]([O-])c1cccc(S(=O)(=O)c2cccc([N+](=O)[O-])c2)c1`, the EC50 was over 200 µM and the IC50 was over 200 µM.
For the molecule `O=[N+]([O-])c1ccc(-n2cccc2)cc1`, the EC50 is over 200 µM and the IC50 was found to be 22.9 µM.
Regarding `Cc1ccccc1CC1(Br)CC(C)(C)c2ccccc2C1=O` (centres undefined), the EC50 is over 200 µM and the IC50 was found to be 29.5 µM.
For `COC(=O)C1(NC(=O)C(CC(=O)OCc2ccccc2)NC(=O)OCc2ccccc2)CCCCCC1` (centres undefined), in that order: over 200 µM and 107 µM.
For `Nc1ccc2c(c1)S(=O)(=O)c1cc(N)ccc1-2`, in that order: over 200 µM and over 200 µM.
Take `COc1ccc2c(c1)CC1c3c(ccc(OC)c3O)CC2N1C` (centres undefined): the EC50 was over 43.7 µM and the IC50 was 20.4 µM.
Consider `CC(C)(C)C(=O)/C=C/c1cccc(F)c1`, for which the result was inactive.
Regarding `O=c1[nH]c(O)c(/C=N\C(=S)Nc2cc(Cl)ccc2Cl)c(=O)[nH]1`, the EC50 was over 200 µM and the IC50 worked out at 162 µM.
Regarding `CC(=O)OCCc1cccnc1/C=N/O`, the EC50 is over 1200 µM and the IC50 came to 204 µM.
As for `CC(C)C1=CC23CCC4C(C)(C(=O)O)CCCC4(C)C2CC1C1C(=O)N(c2ccc(Cc4ccc(N5C(=O)C6C7CC8C9(C)CCCC(C)(C(=O)O)C9CCC8(C=C7C(C)C)C6C5=O)cc4)cc2)C(=O)C13` (centres undefined), the EC50 was over 35.5 µM and the IC50 turned out to be 13.8 µM.
`CC1=NN(C(=O)Cc2ccccc2)C(=O)/C1=C\C=C\c1ccccc1`: the EC50 was over 57.5 µM and the concentration for half-maximal inhibition (IC50) is over 57.5 µM.
As to `CC(C)=CCC/C(C)=C\C=N/O`, the EC50 was over 155 µM and the IC50 was 8.13 µM.
For `O=S1(=O)c2ccc(cc2)N=CC=Nc2ccc1cc2`, the EC50 was over 33.1 µM and the IC50 was over 33.1 µM.
With `NC(CCCNCc1ccccc1)C(=O)O` (centres undefined), the EC50 was over 562 µM and the half-inhibitory concentration (IC50) is over 562 µM.
For the molecule `Cc1cc(S(=O)(=O)Nc2nnc3cnc4ccccc4n23)c(S)cc1Cl`, the EC50 is 89.1 µM and the IC50 came to 339 µM.
`O=C1O/C(=C(\Br)c2ccc([N+](=O)[O-])cc2)c2ccccc21`: the EC50 is over 200 µM and the IC50 was determined as 16.6 µM.
`NC(=O)c1nnsc1NN=O`: the EC50 was over 200 µM and the IC50 is over 200 µM.
On to `CCC(NC1=NCCO1)c1cccs1` (centres undefined), for which the EC50 is over 200 µM and the IC50 was determined as 79.4 µM.
Consider `COC1/C=C/OC2(C)Oc3c(C)c(O)c4c(O)c(c(C5SCCS5)c(O)c4c3C2=O)NC(=O)/C(C)=C\C=C\C(C)C(O)C(C)C(O)C(C)C(O)C1C` (centres undefined), for which the EC50 was over 200 µM and the half-inhibitory concentration (IC50) was 1 µM.
In the case of `Cc1oc2c(c1C)S(=O)(=O)C(C#N)=CN2`, the EC50 is over 200 µM and the IC50 is over 200 µM.
As to `Cn1c(=O)[nH]c2c([nH]c(=O)c(=O)n2C)c1=O`, the EC50 is over 200 µM and the IC50 was over 200 µM.
Consider `COc1cc(Br)cc2nc(-c3cccs3)oc12`, for which the EC50 was over 200 µM and the IC50 was 141 µM.
Turning to `CCOc1ccc(C2(C)OC(=O)C3CCCCC32)c2ccccc12` (centres undefined), the result was inactive.
Still for that read-out and setting: to `O=C(O)C1(C(=O)O)CC1` belongs “inactive”.
`O=C1CCCCCCC2=C1C(Sc1ccccc1)CC2` (centres undefined): the EC50 was over 200 µM and the half-maximal inhibitory concentration (IC50) is 30.9 µM.
Consider `O=[N+]([O-])c1ccc(O)c(CN(Cc2ccccc2)Cc2c(O)ccc3ccccc23)c1`, for which the EC50 was over 200 µM and the IC50 is over 200 µM.
Turning to `CCOc1ccc(C2=NN(CC)C(=O)C(C3C(=O)N(c4ccccc4)N=C3C)C2)cc1` (centres undefined), the EC50 is over 120 µM and the IC50 is over 120 µM.
Regarding `CCOC(=O)C1CCN(C(=O)c2ccccc2)c2scc(-c3ccccc3)c2C1=O` (centres undefined), the EC50 is over 100 µM and the half-maximal inhibitory concentration (IC50) turned out to be 13.8 µM.
Turning to `CC(=O)C(=Cc1cccc(C)c1)C(C)=O`, the EC50 was over 339 µM and the IC50 is 17.8 µM.
For `CC(=O)C1C(=O)C(=O)N(c2cccc([N+](=O)[O-])c2)C1=O` (centres undefined), in that order: over 200 µM and over 200 µM.
With `CN(C)NC(=S)C(F)(F)C(F)(F)F`, the EC50 was over 200 µM and the IC50 turned out to be 10.2 µM.
Take `CCCCCCCCCCSC(=O)NC`: the result was inactive.
Take `O=C1NS(=O)(=O)NC1(c1ccccc1)c1ccccc1`: the outcome was inactive.
Consider `Cc1ccccc1NC(=O)CSc1nnc(Cc2ccccc2)o1`, for which the EC50 is over 263 µM and the IC50 was determined as 234 µM.
Take `CC(C)(C)C(=O)/C=C/c1ccc(-c2ccccc2)cc1`: the EC50 is over 19.5 µM and the IC50 is over 19.5 µM.
For `NCCOCCOCC(=O)O`, the result was inactive.
Consider `COc1ccccc1N=Nc1c(S(=O)(=O)O)cc2cc(NC(=O)Nc3ccc4c(O)c(N=Nc5c(N)ccc6cc(S(=O)(=O)O)ccc56)c(S(=O)(=O)O)cc4c3)ccc2c1O`, for which the outcome was active.
In the case of `COc1cc2c(cc1OC(=O)CC(C)O)C1C(OC2=O)C(OC(C)=O)C=C2CCN(C)[C@H]21` (some centres undefined), the EC50 is over 56.2 µM and the IC50 is over 56.2 µM.
For `COC(=O)c1ccc2c(O)c(O)ccc2c1`, the EC50 was over 200 µM and the IC50 stood at 3.16 µM.
With `COc1ccc2oc(=O)c(CC=C(C)C)c(O)c2c1C`, the EC50 was over 200 µM and the IC50 is over 100 µM.
For the molecule `CCCNC(=S)/N=C\c1c(O)c2ccccc2oc1=O`, the EC50 is over 200 µM and the IC50 is over 200 µM.
